Data on 15 compounds can be found in US8461183B2, “PPAR agonist compounds, preparation and uses” (Genfit, priority 2008, dated 2013).

What all share (assay type): cell-based
The target of one assay is T1, hPPARα (Homo sapiens, UniProt Q07869).
T1 construct: corresponding to the DEF domains (structural elements of the promoter of the PPARs: D=hinge, EF=ligand fixation domain and AF2 fixation site); expressed in transfected cells; host or cells: COS-7 (monkey kidney fibroblasts)
T1 sequence (Q07869 239-466 limits assumed): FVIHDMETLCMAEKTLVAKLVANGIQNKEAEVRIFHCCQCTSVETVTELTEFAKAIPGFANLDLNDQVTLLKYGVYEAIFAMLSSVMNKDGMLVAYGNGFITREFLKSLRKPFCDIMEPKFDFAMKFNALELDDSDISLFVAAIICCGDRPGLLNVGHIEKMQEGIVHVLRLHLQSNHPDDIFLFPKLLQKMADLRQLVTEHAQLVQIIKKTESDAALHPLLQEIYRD
Briefly: Gal4-hPPARα chimera transactivation (luciferase) in COS-7 cells. The settings on record: for EC50 / PPARα TOP % (maximum activation) / Emax: COS-7 cells, Gal4-hPPARα, 24 hours; for EC50: luciferase, read-out: PPARα EC50; for PPARα TOP % (maximum activation) / Emax: relative to maximum activation obtained with fenofibric acid; for Emax: read-out: PPARα TOP % (maximum activation). The method, then:
(§1) Activation of PPARs is evaluated in vitro on a line of monkey kidney fibroblasts (COS-7) by measuring the transcriptional activity of chimeras consisting of the DNA binding domain of Gal4 transcription factor of yeast and of the ligand binding domain of the various PPARs of human origin (hPPAR).
(§2) The COS-7 cells are from ATCC and are cultivated in DMEM medium supplemented with 10% (vol/vol) of fetal calf serum, 1% of penicillin/streptomycin (Biochrom, AG), 1% of amino acids (Gibco) and 1% of sodium pyruvate (Gibco). The cells are incubated at 37° C. in a humid atmosphere containing 5% CO2.
(§3) The plasmids Gal4(RE)_TkpGL3, pGal4-hPPARα, pGal4-hPPARγ, pGal4-hPPARδ and pGal4-φ are described in the literature (Raspe E et al., 1999). The constructs pGal4-hPPARα, pGal4-hPPARγ and pGal4-hPPARδ were obtained by cloning, into the pGal4-φ vector, DNA fragments amplified by PCR corresponding to the DEF domains (structural elements of the promoter of the PPARs: D=hinge, EF=ligand fixation domain and AF2 fixation site) of the human nuclear receptors PPAα, PPARγ and PPARδ.
(§4) The adherent COS-7 cells are transfected with 40 μg of DNA per 225 cm^2 flask, with a pGal4-hPPAR/Gal4(RE)_TkpGL3 ratio of 1/10, in the presence of 10% of fetal calf serum. The cells are then detached and seeded in the absence of serum in 384-well plates (2×10^4 cells/well) then incubated for 4 hours at 37° C. The compounds are then diluted in a 96-well plate and then transferred to the 384-well plate. Activation with the test compounds is effected for a further 24 hours at 37° C. in the presence of 1% of synthetic serum Ultroser™ (Biosepra). These last 2 stages are automated by means of a Genesis Freedom 200™ station (Tecan). At the end of the experiment, the cells are lysed and the luciferase activity is determined using the Steady-Lite™ HTS (Perkin Elmer) according to the supplier's recommendations.
The test data are summarized in Table 8-1 below, which presents, for each compound, the values of maximum activation (TOP %) and the EC50 values measured for each isoform of PPAR. The values of maximum activation are expressed in percentages relative to the maximum activations obtained with reference agonists: fenofibric acid for PPARα, rosiglitazone for PPARγ and 2-methyl-4-((4-methyl-2-(4-trifluoromethylphenyl)-1,3-thiazol-5-yl)-methylsulfanyl)phenoxyacetic acid (also called GW501516) for PPARδ.

The target in a further assay is T2, hPPARγ (Homo sapiens, UniProt P37231).
T2 construct: corresponding to the DEF domains (structural elements of the promoter of the PPARs: D=hinge, EF=ligand fixation domain and AF2 fixation site); expressed in transfected cells; host or cells: COS-7 (monkey kidney fibroblasts)
T2 sequence (P37231 238-503 limits assumed): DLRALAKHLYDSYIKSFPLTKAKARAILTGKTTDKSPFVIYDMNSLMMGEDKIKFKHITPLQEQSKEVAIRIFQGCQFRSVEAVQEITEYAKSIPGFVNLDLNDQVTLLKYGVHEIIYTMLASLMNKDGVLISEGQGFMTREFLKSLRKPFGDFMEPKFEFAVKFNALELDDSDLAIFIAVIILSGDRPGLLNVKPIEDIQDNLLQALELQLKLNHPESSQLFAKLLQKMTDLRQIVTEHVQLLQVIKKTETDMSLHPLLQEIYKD
The assay can be described thus: Gal4-hPPARγ chimera transactivation (luciferase) in COS-7 cells. The following applies: 24 hours; for EC50: luciferase, read-out: PPARγ EC50; for Emax: read-out: PPARγ TOP % (maximum activation). The method, then: as §1, §2, §3, §4
(§5) The test data are summarized in Table 8-1 below, which presents, for each compound, the values of maximum activation (TOP %) and the EC50 values measured for each isoform of PPAR.

A further assay deals with T3, hPPARδ (Homo sapiens, UniProt Q03181).
T3 construct: corresponding to the DEF domains (structural elements of the promoter of the PPARs: D=hinge, EF=ligand fixation domain and AF2 fixation site); expressed in transfected cells; host or cells: COS-7 (monkey kidney fibroblasts)
T3 sequence (Q03181 211-439 limits assumed): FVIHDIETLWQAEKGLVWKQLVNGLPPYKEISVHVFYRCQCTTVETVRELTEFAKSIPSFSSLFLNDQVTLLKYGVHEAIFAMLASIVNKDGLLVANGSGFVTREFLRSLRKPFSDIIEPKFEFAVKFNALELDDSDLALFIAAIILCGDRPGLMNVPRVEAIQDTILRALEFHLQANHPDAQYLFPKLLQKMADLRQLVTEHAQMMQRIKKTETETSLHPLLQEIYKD
The assay can be described thus: Gal4-hPPARδ chimera transactivation (luciferase) in COS-7 cells. The settings on record: COS-7 cells, Gal4-hPPARδ, 24 hours; for EC50: luciferase, read-out: PPARδ EC50; for Emax: read-out: PPARδ TOP % (maximum activation). The method, then:
as §1, §2, §3, §4, §5

Where [1] appears, read: relative to maximum activation obtained with rosiglitazone.
Where [2] appears, read: relative to maximum activation obtained with GW501516.

As for “2-(4-(((2-methoxy-6-furylpyridin-3-yl)methyl)amino)phenylthio)ethanoic acid [Cpd 30]”, on hPPARα, the EC50 (commonly the concentration that produces a half-maximal response) was found to be 12.1 µM and the “PPARα TOP % (maximum activation)” value stood at 38.70%.

On to “3-(4-(((2-methoxy-6-furylpyridin-3-yl)methyl)amino)phenyl)propanoic acid [Cpd 31]”, for which the results for the EC50 at hPPARγ, on hPPARδ and at hPPARα were 3.36 µM, 16.3 µM and 2.49 µM, respectively. Besides, the “PPARγ TOP % (maximum activation)” value on hPPARγ (setting [1]) was 62.35%. On hPPARδ (setting [2]), the “PPARδ TOP % (maximum activation)” value came out at 86.72%. Besides, the “PPARα TOP % (maximum activation)” value at hPPARα is reported as 49.52%.

Consider `COc1nc(-c2ccccc2)ccc1COc1ccc(OC(C)C(=O)O)cc1` (stereo not drawn) [Cpd 3, 2-(4-((2-methoxy-6-phenylpyridin-3-yl)methoxy)phenoxy)propanoic acid], for which the EC50 on hPPARγ is 3.24 µM; on hPPARδ it was 1.2 µM; on hPPARα it was 0.432 µM. The figures for the Emax at hPPARγ (setting [1]), on hPPARδ (setting [2]) and at hPPARα were 43.6%, 114% and 68.7%, respectively.

With `COc1nc(-c2ccccc2)ccc1CNc1ccc(OC(C)C(=O)O)cc1` (stereo not drawn) [Cpd 5, 2-(4-(((2-methoxy-6-phenylpyridin-3yl)methyl)amino)phenoxy)propanoic acid], the EC50 at hPPARγ amounted to 3.72 µM; at hPPARδ it was 6.17 µM; at hPPARα, 0.389 µM. Moreover, the values for the Emax on hPPARγ (setting [1]), on hPPARδ (setting [2]) and on hPPARα were 57.3%, 71% and 67.5%, respectively.

For `CC(C)(C)Oc1nc(-c2ccccc2)ccc1COc1ccc(OC(C)(C)C(=O)O)cc1` [Cpd 6, 2-(4-((2-tert-butyloxy-6-phenylpyridin-3-yl)methoxy)phenoxy)-2-methyl-propanoic acid], the EC50 came out at 11.8 µM at hPPARγ, 0.489 µM on hPPARδ and 5.43 µM on hPPARα. The Emax was found to be 17.3% on hPPARγ (setting [1]), 70.7% at hPPARδ (setting [2]) and 30.3% at hPPARα.

With `CC(C)(C)Oc1nc(-c2ccccc2)ccc1CNc1ccc(OCC(=O)O)cc1` [Cpd 8], the EC50 on hPPARγ was found to be 12.2 µM; on hPPARδ, 2.11 µM; at hPPARα it was 7.92 µM. For the same compound, the Emax turned out to be 13.4% on hPPARγ (setting [1]), 72.4% on hPPARδ (setting [2]) and 21.9% on hPPARα.

On to `CC(C)(C)Oc1nc(-c2ccccc2)ccc1CNc1ccc(OC(C)(C)C(=O)O)cc1` [Cpd 9, 2-(4-(((2-tert-butyloxy-6-phenylpyridin-3-yl)methyl)amino)phenoxy)-2-methyl-propanoic acid], for which the results for the EC50 on hPPARγ, at hPPARδ and at hPPARα were 6.09 µM, 0.464 µM and 4.5 µM, respectively. The Emax turned out to be 23.9% on hPPARγ (setting [1]), 74.2% at hPPARδ (setting [2]) and 33.7% at hPPARα.

On to `CC(Oc1ccc(NCc2ccc(-c3ccccc3)nc2OC(C)(C)C)cc1)C(=O)O` (stereo not drawn) [Cpd 10, 2-(4-(((2-tert-butyloxy-6-phenylpyridin-3-yl)methyl)amino)phenoxy)propanoic acid], for which the EC50 is 10.5 µM at hPPARγ, 0.754 µM at hPPARδ and 6.06 µM on hPPARα. The Emax was found to be 25.6% on hPPARγ (setting [1]), 96.7% on hPPARδ (setting [2]) and 53.2% on hPPARα.

On to `COc1nc(-c2ccccc2)ccc1CNc1ccc(SC(C)(C)C(=O)O)cc1` [Cpd 11, 2-(4-(((2-methoxy-6-phenylpyridin-3-yl)methyl)amino)phenylthio)-2-methyl-propanoic acid], for which the concentration giving a half-maximal response (EC50) at hPPARγ turned out to be 2.45 µM; at hPPARδ, 3 µM; on hPPARα, 0.022 µM. In addition, the Emax on hPPARγ (setting [1]) stood at 54.5%; on hPPARδ (setting [2]), 85.7%; on hPPARα, 86.2%. Further, the “selectivity among hPPAR isoforms (hPPARα)” value on hPPARα (Gal4-hPPAR chimeras, COS-7) is given as “high selectivity for hPPARα”.

Turning to `COc1nc(-c2ccccc2)ccc1CNc1ccc(OC(C)(C)C(=O)O)cc1` [Cpd 12, 2-(4-(((2-methoxy-6-phenylpyridin-3-yl)methyl)amino)phenoxy)-2-methyl-propanoic acid], the EC50 on hPPARγ was 2.64 µM; on hPPARδ it was 2.36 µM; on hPPARα, 0.195 µM. The results for the Emax on hPPARγ (setting [1]), on hPPARδ (setting [2]) and on hPPARα were 44.9%, 84.2% and 78.1%, respectively.

On to `COc1nc(-c2ccccc2)ccc1CNc1cccc(OC(C)(C)C(=O)O)c1` [Cpd 13, 2-(3-(((2-methoxy-6-phenylpyridin-3-yl)methyl)amino)phenoxy)-2-methyl-propanoic acid], for which the concentration for a half-maximal effect (EC50) was 6.93 µM on hPPARγ, 3.22 µM on hPPARδ and 1.43 µM on hPPARα. The Emax on hPPARγ (setting [1]) came to 24.1%; on hPPARδ (setting [2]) it was 96.1%; at hPPARα, 61.9%.

Consider `COc1nc(-c2ccccc2)ccc1CNc1cccc(OCC(=O)O)c1` [Cpd 14, 2-(3-(((2-methoxy-6-phenylpyridin-3-yl)methyl)amino)phenoxy)ethanoic acid], for which the values for the concentration for a half-maximal effect (EC50) at hPPARγ, on hPPARδ and on hPPARα were 24.3 µM, 16.2 µM and 33.3 µM, respectively. The Emax at hPPARγ (setting [1]) is 53.7%; on hPPARδ (setting [2]) it was 103%; at hPPARα, 58.4%.

On to `CCCCCCOc1nc(-c2ccccc2)ccc1COc1ccc(OCC(=O)O)cc1` [Cpd 15, 2-(4-((2-hexyloxy-6-phenylpyridin-3-yl)methoxy)phenoxy)ethanoic acid], for which the EC50 on hPPARγ was determined as 12.3 µM; at hPPARδ, 1.52 µM; at hPPARα, 3.24 µM. In addition, the Emax at hPPARγ (setting [1]) is 46.6%; on hPPARδ (setting [2]), 96.5%; on hPPARα it was 78.2%.

With `COc1nc(-c2ccccc2)ccc1CNc1ccc(SCC(=O)O)cc1` [Cpd 16, 2-(4-(((2-methoxy-6-phenylpyridin-3-yl)methyl)amino)phenylthio)ethanoic acid], the results for the half-maximal effective concentration (EC50) at hPPARγ, at hPPARδ and at hPPARα were 5.18 µM, 3.37 µM and 0.51 µM, respectively. Further, the Emax was 70% on hPPARγ (setting [1]), 85.2% at hPPARδ (setting [2]) and 78% on hPPARα.

As to `CCCCCCOc1nc(-c2ccccc2)ccc1COc1ccc(OC(C)(C)C(=O)O)cc1` [Cpd 17, 2-(4-((2-hexyloxy-6-phenylpyridin-3-yl)methoxy)phenoxy)-2-methyl-propanoic acid], the results for the EC50 at hPPARγ, on hPPARδ and on hPPARα were 0.583 µM, 0.992 µM and 0.009 µM, respectively. Further, the Emax is 75.6% on hPPARγ (setting [1]), 99.6% on hPPARδ (setting [2]) and 66.8% on hPPARα.
